According to patent publication US8604218B2, “Cytoskeletal active rho kinase inhibitor compounds, composition and use” (Inspire Pharmaceuticals, Inc., priority 2006, dated 2013):

These compounds were tested against ROCK2 (Homo sapiens (Human), UniProt O75116) (assay: Rho Kinase Inhibition Assay (IMAP fluorescence polarization)). Conditions: isolated enzyme, 10 μM ATP, 60 minutes at room temperature.
Format: biochemical
Procedure: Following the preincubation, 10 μM ATP was added to initiate the reaction. After 60 minutes at room temperature, Molecular Devices IMAP™ binding solution was added to bind phosphorylated substrate. After 30 minutes of incubation in the presence of the IMAP™ beads the fluorescence polarization was read and the ratio was reported as mP. IC50 results were calculated using the Prism software from Graphpad.
See Tian et al., Arch. Ophthalmol. […] Ophthalmol. Vis. […] Ophthalmol. […] Cytoskel. […] Ophthalmol. Vis. […] Ophthalmol. Vis.

Sequence of ROCK2 (O75116 11-552): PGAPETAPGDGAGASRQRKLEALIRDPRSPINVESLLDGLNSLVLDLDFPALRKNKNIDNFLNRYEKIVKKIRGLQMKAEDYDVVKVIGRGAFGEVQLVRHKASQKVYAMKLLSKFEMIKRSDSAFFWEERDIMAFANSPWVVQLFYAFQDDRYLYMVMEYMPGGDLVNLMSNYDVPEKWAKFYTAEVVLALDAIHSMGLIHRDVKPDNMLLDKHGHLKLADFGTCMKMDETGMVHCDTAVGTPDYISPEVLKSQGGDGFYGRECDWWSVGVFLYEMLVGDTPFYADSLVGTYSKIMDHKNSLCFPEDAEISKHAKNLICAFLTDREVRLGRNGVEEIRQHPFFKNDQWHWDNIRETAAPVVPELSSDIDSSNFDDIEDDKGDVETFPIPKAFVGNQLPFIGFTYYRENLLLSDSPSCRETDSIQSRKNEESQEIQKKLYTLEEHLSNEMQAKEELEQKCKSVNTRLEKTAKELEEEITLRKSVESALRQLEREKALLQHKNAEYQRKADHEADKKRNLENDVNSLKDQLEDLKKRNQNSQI

SMILES | IC50
CC(=O)Nc1ccc(CN2CCCC(Nc3ccc4[nH]ncc4c3)C2)cc1 (centres unmarked) [Compound 1.003, N-(4-((3-(1H-indazol-5-ylamino)piperidin-1-yl)methyl)phenyl)acetamide] | 6.19 µM
CS(=O)(=O)c1ccc(CN2CCC(Nc3ccc4[nH]ncc4c3)C2)cc1 (centres unmarked) [Compound 1.004, N-(1-(4-(methylsulfonyl)benzyl)pyrrolidin-3-yl)-1H-indazol-5-amine] | 0.254 µM
CN(C)CCCOc1ccc(CN2CCC(Nc3ccc4[nH]ncc4c3)C2)cc1 (centres unmarked) [Compound 1.007, N-(1-(4-(3-(dimethylamino)propoxy)benzyl)pyrrolidin-3-yl)-1H-indazol-5-amine] | 3.44 µM
CSc1ccc(CN2CCCC(Nc3ccc4[nH]ncc4c3)C2)cc1 (centres unmarked) [Compound 1.008, N-(1-(4-(methylthio)benzyl)piperidin-3-yl)-1H-indazol-5-amine] | 0.0658 µM
c1ccc(-c2ccc(CN3CCCC(Nc4ccc5[nH]ncc5c4)C3)cc2)cc1 (centres unmarked) [Compound 1.009, N-(1-(biphenyl-4-ylmethyl)piperidin-3-yl)-1H-indazol-5-amine] | 1.61 µM
c1cn(-c2ccc(CN3CCCC(Nc4ccc5[nH]ncc5c4)C3)cc2)cn1 (centres unmarked) [Compound 1.010] | 2.8 µM
c1cc(N2CCCC2)ccc1CN1CCCC(Nc2ccc3[nH]ncc3c2)C1 (centres unmarked) [Compound 1.011, N-(1-(4-(pyrrolidin-1-yl)benzyl)piperidin-3-yl)-1H-indazol-5-amine] | 12.2 µM
c1cc(N2CCOCC2)ccc1CN1CCCC(Nc2ccc3[nH]ncc3c2)C1 (centres unmarked) [Compound 1.012, N-(1-(4-morpholinobenzyl)piperidin-3-yl)-1H-indazol-5-amine] | 12.2 µM
CCCCc1ccc(CN2CCCC(Nc3ccc4[nH]ncc4c3)C2)cc1 (centres unmarked) [Compound 1.014, N-(1-(4-butylbenzyl)piperidin-3-yl)-1H-indazol-5-amine] | 4.69 µM
OCCOc1ccc(CN2CCCC(Nc3ccc4[nH]ncc4c3)C2)cc1 (centres unmarked) [Compound 1.018, 2-(4-((3-(1H-indazol-5-ylamino)piperidin-1-yl)methyl)phenoxy)ethanol] | 2.41 µM
CN(C)Cc1ccc(CN2CCCC(Nc3ccc4[nH]ncc4c3)C2)cc1 (centres unmarked) [Compound 1.019, N-(1-(4-((dimethylamino)methyl)benzyl)piperidin-3-yl)-1H-indazol-5-amine] | 13.4 µM
c1cc(C2CC2)ccc1CN1CCCC(Nc2ccc3[nH]ncc3c2)C1 (centres unmarked) [Compound 1.020, N-(1-(4-cyclopropylbenzyl)piperidin-3-yl)-1H-indazol-5-amine] | 0.251 µM
FC(F)(F)Oc1ccc(CN2CCCC(Nc3ccc4[nH]ncc4c3)C2)cc1 (centres unmarked) [Compound 1.022, N-(1-(4-(trifluoromethoxy)benzyl)piperidin-3-yl)-1H-indazol-5-amine] | 1.61 µM
CC(C)c1ccc(CN2CCCC(Nc3ccc4[nH]ncc4c3)C2)cc1 (centres unmarked) [Compound 1.023, N-(1-(4-isopropylbenzyl)piperidin-3-yl)-1H-indazol-5-amine] | 0.334 µM
CC(C)(C)OC(=O)NCc1ccc(CN2CCCC(Nc3ccc4[nH]ncc4c3)C2)cc1 (centres unmarked) [Compound 1.027, tert-butyl 4-((3-(1H-indazol-5-ylamino)piperidin-1-yl)methyl)benzylcarbamate] | 6.6 µM
c1ccc(CN2CCCC(Nc3ccc4[nH]ncc4c3)CC2)cc1 (centres unmarked) [Compound 1.031, N-(1-benzylazepan-4-yl)-1H-indazol-5-amine] | 1.75 µM
CN(C)c1ccc(CN2CCCC(Nc3ccc4[nH]ncc4c3)C2)cc1 (centres unmarked) [Compound 1.032, N-(1-(4-(dimethylamino)benzyl)piperidin-3-yl)-1H-indazol-5-amine] | 1.94 µM
C#Cc1ccc(CN2CCCC(Nc3ccc4[nH]ncc4c3)C2)cc1 (centres unmarked) [Compound 1.034, N-(1-(4-ethynylbenzyl)piperidin-3-yl)-1H-indazol-5-amine] | 0.0691 µM
NCc1ccc(CN2CCCC(Nc3ccc4[nH]ncc4c3)C2)cc1 (centres unmarked) [Compound 1.035, N-(1-(4-(aminomethyl)benzyl)piperidin-3-yl)-1H-indazol-5-amine] | 0.208 µM
CC(=O)c1ccc(CN2CCCC(Nc3ccc4[nH]ncc4c3)C2)cc1 (centres unmarked) [Compound 1.036, 1-(4-((3-(1H-indazol-5-ylamino)piperidin-1-yl)methyl)phenyl)ethanone] | 1.02 µM
C=Cc1ccc(CN2CCCC(Nc3ccc4[nH]ncc4c3)C2)cc1 (centres unmarked) [Compound 1.037, N-(1-(4-vinylbenzyl)piperidin-3-yl)-1H-indazol-5-amine] | 0.0695 µM
CSc1cccc(CN2CCCC(Nc3ccc4[nH]ncc4c3)C2)c1 (centres unmarked) [Compound 1.040, N-(1-(3-(methylthio)benzyl)piperidin-3-yl)-1H-indazol-5-amine] | 0.144 µM
OCC#Cc1ccc(CN2CCCC(Nc3ccc4[nH]ncc4c3)C2)cc1 (centres unmarked) [Compound 1.042, 3-(4-((3-(1H-indazol-5-ylamino)piperidin-1-yl)methyl)phenyl)prop-2-yn-1-ol] | 4.4 µM
OCCC#Cc1ccc(CN2CCCC(Nc3ccc4[nH]ncc4c3)C2)cc1 (centres unmarked) [Compound 1.043, 4-(4-((3-(1H-indazol-5-ylamino)piperidin-1-yl)methyl)phenyl)but-3-yn-1-ol] | 11.7 µM
C(#CC1CC1)c1ccc(CN2CCCC(Nc3ccc4[nH]ncc4c3)C2)cc1 (centres unmarked) [Compound 1.044, N-(1-(4-(cyclopropylethynyl)benzyl)piperidin-3-yl)-1H-indazol-5-amine] | 6.51 µM
Brc1cccc(CN2CCCC(Nc3ccc4[nH]ncc4c3)C2)c1 (centres unmarked) [Compound 1.045, N-(1-(3-bromobenzyl)piperidin-3-yl)-1H-indazol-5-amine] | 0.586 µM
Nc1n[nH]c2ccc(NC3CCCN(Cc4ccccc4)C3)cc12 (centres unmarked) [Compound 1.050, N5-(1-benzylpiperidin-3-yl)-1H-indazole-3,5-diamine] | 1.04 µM
CS(=O)(=O)Nc1cccc(CN2CCCC(Nc3ccc4[nH]ncc4c3)C2)c1 (centres unmarked) [Compound 1.051, N-(3-((3-(1H-indazol-5-ylamino)piperidin-1-yl)methyl)phenyl)methanesulfonamide] | 0.0626 µM

More lines, in order of falling IC50, values ahead:

IC50 | SMILES
11.7 µM | CS(=O)(=O)Cc1ccc(CN2CCCC(Nc3ccc4[nH]ncc4c3)C2)cc1 (centres unmarked) [Compound 1.029, N-(1-(4-(methylsulfonylmethyl)benzyl)piperidin-3-yl)-1H-indazol-5-amine]
9.98 µM | CC(C)Oc1ccc(CN2CCCC(Nc3ccc4[nH]ncc4c3)C2)cc1 (centres unmarked) [Compound 1.015, N-(1-(4-isopropoxybenzyl)piperidin-3-yl)-1H-indazol-5-amine]
3.66 µM | CC(C)Cc1ccc(CN2CCCC(Nc3ccc4[nH]ncc4c3)C2)cc1 (centres unmarked) [Compound 1.013, N-(1-(4-isobutylbenzyl)piperidin-3-yl)-1H-indazol-5-amine]
2.76 µM | N#Cc1ccc(CN2CCCC(Nc3ccc4[nH]ncc4c3)C2)cc1 (centres unmarked) [Compound 1.038, 4-((3-(1H-indazol-5-ylamino)piperidin-1-yl)methyl)benzonitrile]
2.13 µM | c1cc(SC2CC2)ccc1CN1CCCC(Nc2ccc3[nH]ncc3c2)C1 (centres unmarked) [Compound 1.026, N-(1-(4-(cyclopropylthio)benzyl)piperidin-3-yl)-1H-indazol-5-amine]
0.721 µM | CS(=O)(=O)c1cccc(CN2CCCC(Nc3ccc4[nH]ncc4c3)C2)c1 (centres unmarked) [Compound 1.048, N-(1-(3-(methylsulfonyl)benzyl)piperidin-3-yl)-1H-indazol-5-amine]
0.604 µM | Cc1n[nH]c2ccc(NC3CCCN(Cc4ccccc4)C3)cc12 (centres unmarked) [Compound 1.049, N-(1-benzylpiperidin-3-yl)-3-methyl-1H-indazol-5-amine]
0.588 µM | OCc1ccc(CN2CCCC(Nc3ccc4[nH]ncc4c3)C2)cc1 (centres unmarked) [Compound 1.025, (4-((3-(1H-indazol-5-ylamino)piperidin-1-yl)methyl)phenyl)methanol]
0.553 µM | c1cc(CN2CCCC(Nc3ccc4[nH]ncc4c3)C2)cc(C2CC2)c1 (centres unmarked) [Compound 1.021, N-(1-(3-cyclopropylbenzyl)piperidin-3-yl)-1H-indazol-5-amine]
0.358 µM | CS(=O)(=O)c1ccc(CN2CCCC(Nc3ccc4[nH]ncc4c3)C2)cc1 (centres unmarked) [Compound 1.001, N-(1-(4-(methylsulfonyl)benzyl)piperidin-3-yl)-1H-indazol-5-amine]
0.328 µM | OCCOc1cccc(CN2CCCC(Nc3ccc4[nH]ncc4c3)C2)c1 (centres unmarked) [Compound 1.039, 2-(3-((3-(1H-indazol-5-ylamino)piperidin-1-yl)methyl)phenoxy)ethanol]
0.215 µM | CCSc1ccc(CN2CCCC(Nc3ccc4[nH]ncc4c3)C2)cc1 (centres unmarked) [Compound 1.017, N-(1-(4-(ethylthio)benzyl)piperidin-3-yl)-1H-indazol-5-amine]
0.156 µM | Oc1cccc(CN2CCCC(Nc3ccc4[nH]ncc4c3)C2)c1 (centres unmarked) [Compound 1.046, 3-((3-(1H-indazol-5-ylamino)piperidin-1-yl)methyl)phenol]
0.137 µM | CS(=O)(=O)Cc1cccc(CN2CCCC(Nc3ccc4[nH]ncc4c3)C2)c1 (centres unmarked) [Compound 1.041, N-(1-(3-(methylsulfonylmethyl)benzyl)piperidin-3-yl)-1H-indazol-5-amine]
0.135 µM | Cc1cccc(CN2CCCC(Nc3ccc4[nH]ncc4c3)C2)c1C (centres unmarked) [Compound 1.016, N-(1-(2,3-dimethylbenzyl)piperidin-3-yl)-1H-indazol-5-amine]
0.107 µM | Cc1ccc(CN2CCCC(Nc3ccc4[nH]ncc4c3)C2)c(C)c1 (centres unmarked) [Compound 1.024, N-(1-(2,4-dimethylbenzyl)piperidin-3-yl)-1H-indazol-5-amine]
0.0869 µM | CCc1ccc(CN2CCCC(Nc3ccc4[nH]ncc4c3)C2)cc1 (centres unmarked) [Compound 1.033, N-(1-(4-ethylbenzyl)piperidin-3-yl)-1H-indazol-5-amine]
0.057 µM | C#Cc1cccc(CN2CCCC(Nc3ccc4[nH]ncc4c3)C2)c1 (centres unmarked) [Compound 1.047, N-(1-(3-ethynylbenzyl)piperidin-3-yl)-1H-indazol-5-amine]
0.0153 µM | c1cc2cc(CN3CCCC(Nc4ccc5[nH]ncc5c4)C3)ccc2o1 (centres unmarked) [Compound 1.052, N-(1-(benzofuran-5-ylmethyl)piperidin-3-yl)-1H-indazol-5-amine]
